In patent EP0955049B1, “6 Beta-Hydroxy - 6 alpha, 17 alpha - dimethylpregn - 4 - ene - 3,20 - dione, as an inhibitor of smooth muscle proliferation” (Wyeth, priority 1994, dated 1995):

Tested on: Primary rat aorta smooth muscle cell cultures
Assay: smooth muscle cell proliferation ([3H]-thymidine incorporation)
Assay type: cell-based
Conditions: [3H]-thymidine (0.5 µCi/mL), 24 hours at 37°C, M 199 plus 10% fetal bovine serum, cells per well as percent of control
Description: This utility was established by subjecting the compound to the following standard experimental test procedure:
Primary rat aorta smooth muscle cell cultures grown in media 199 (Gibco ) plus 10% fetal bovine serum (Gibco) were washed with calcium, magnesium free Dulbecco's phosphate buffered saline and trypsinized for five minutes. Cells were scraped from culture dishes with a rubber policeman and centrifuged. Cells were resuspended in M 199 plus 10% fetal bovine serum containing [^3H)-thymidine (0.5 µCi/mL) at 8-15,000 cells/mL, and were placed into plate wells. The novel intermediate was added to each well and the plates were incubated for 24 hours at 37°C. in a 5% CO2 atmosphere. The cultured cells were treated with trichloracetic acid to remove acid soluble proteins, leaving only cell superstructure and DNA. These cells were solubilized, counted by scintillation and the results compared with control to determine the number of cells per well, the difference in cells being expressed as a percent of control.

Question: Which IC50 does the source give for CC(=O)[C@@]1(C)CC[C@H]2[C@@H]3C[C@@](C)(O)C4=CC(=O)CC[C@]4(C)[C@H]3CC[C@@]21C [6β - Hydroxy - 6α,17α - dimethylpregn - 4 - ene - 3,20 - dione] here?
Answer: Its IC50 is 26.4 µM.
